Measurements: ChEMBL document CHEMBL1201862, “PubChem BioAssay data set” (2004)
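Compound exposure: 48 hours, 5 concentrations, 96-well plates. GI50 marks 50% less growth.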 The source made the active and inactive calls. Cut-off read from the data, not from the text of the source: active = GI50 up to about 1.1 µM and inactive = higher.

Assays:
Test in all cases: NCI-60 cell line screen, 48 h
786-0 = tested on: 786-0
ACHN = tested on: ACHN
CAKI-1 = tested on: CAKI-1
DU-145 = tested on: DU-145
HCC 2998 = tested on: HCC 2998
HCT-15 = tested on: HCT-15
HOP-92 = tested on: HOP-92
IGROV-1 = tested on: IGROV-1
MDA-MB-231 = tested on: MDA-MB-231
MDA-MB-435 = tested on: MDA-MB-435
MDA-N = tested on: MDA-N
MOLT-4 = tested on: MOLT-4
NCI-H522 = tested on: NCI-H522
OVCAR-5 = tested on: OVCAR-5
OVCAR-8 = tested on: OVCAR-8
PC-3 = tested on: PC-3
SF-268 = tested on: SF-268
SF-539 = tested on: SF-539
SK-OV-3 = tested on: SK-OV-3
UACC-257 = tested on: UACC-257

Structure (SMILES) | GI50 (786-0) | GI50 (ACHN) | GI50 (CAKI-1) | GI50 (DU-145) | GI50 (HCC 2998) | GI50 (HCT-15) | GI50 (HOP-92) | GI50 (IGROV-1) | GI50 (MDA-MB-231) | GI50 (MDA-MB-435) | GI50 (MDA-N) | GI50 (MOLT-4) | GI50 (NCI-H522) | GI50 (OVCAR-5) | GI50 (OVCAR-8) | GI50 (PC-3) | GI50 (SF-268) | GI50 (SF-539) | GI50 (SK-OV-3) | GI50 (UACC-257)
CC(C)NC(=O)CN1CCN(C2=C(Cl)C(=O)c3c(O)ccc(O)c3C2=O)CC1 | 2.56 µM (inactive) | 2.15 µM (inactive) | 2.17 µM (inactive) | 2.71 µM (inactive) | 2.92 µM (inactive) | 0.693 µM | 2.24 µM (inactive) | 2.39 µM (inactive) | 1.97 µM (inactive) | 1.62 µM (inactive) | 1.49 µM (inactive) | 0.36 µM (active) | 1.9 µM (inactive) | 2.92 µM (inactive) | 0.861 µM (active) | 1.89 µM (inactive) | 1.82 µM (inactive) | 1.97 µM (inactive) | 10.1 µM (inactive) | 1.79 µM (inactive)
O=c1cc(-c2ccccc2)oc2ccc(Cl)cc12 [6-CHLOROFLAVONE] | 33.3 µM (inactive) | 61.2 µM (inactive) | > 62.1 µM (inactive) | > 56.6 µM (inactive) | > 56.4 µM (inactive) | > 100 µM | 22.8 µM (inactive) | > 82 µM (inactive) | 18.1 µM (inactive) | > 41.5 µM (inactive) | > 41.4 µM (inactive) | > 74.6 µM (inactive) | 64.3 µM (inactive) | > 100 µM (inactive) | > 86.5 µM (inactive) | > 52.5 µM (inactive) | 31.8 µM (inactive) | 37.7 µM (inactive) | 68.2 µM (inactive) | > 54.5 µM (inactive)
Cc1cc(O)c(C=O)c2c1C(=O)Oc1c(CO)c(O)c3c(c1O2)C(O)OC3=O (stereo not given) [SLAZINIC ACID] | > 100 µM (inactive) | 40.1 µM (inactive) | 61.5 µM (inactive) | > 100 µM (inactive) | > 100 µM (inactive) | 55.2 µM | 50.6 µM (inactive) | > 100 µM (inactive) | > 100 µM (inactive) | 39.6 µM (inactive) | 66.2 µM (inactive) | 22.1 µM (inactive) | 42.3 µM (inactive) | > 100 µM (inactive) | 52.7 µM (inactive) | > 100 µM (inactive) | 34.4 µM (inactive) | > 100 µM (inactive) | 64 µM (inactive) | > 100 µM (inactive)
